Reference: article PMC4358768 (Journal of medicinal chemistry, 2011)
One block for each molecule: values may come before it.

Key:
P2Y2R = details: read-out: EC50 at P2Y2R; cited from earlier work
rP2Y1-GFP receptor = details: read-out: EC50 at P2Y1R (rP2Y1-GFP receptor); cited from earlier work
tP2Y1 receptor = tP2Y1 receptor (Meleagris gallopavo, UniProt P49652); assay: [Ca2+]i elevation in 1321N1 astrocytoma cells expressing turkey P2Y1 receptor; assay type: cell-based; details: 1321N1 astrocytoma cells stably transfected with turkey P2Y1 receptor, fura-2, 37 °C; for EC50: read-out: EC50 for [Ca2+]i elevation, P2Y1
tP2Y1 receptor, sequence (P49652 whole entry): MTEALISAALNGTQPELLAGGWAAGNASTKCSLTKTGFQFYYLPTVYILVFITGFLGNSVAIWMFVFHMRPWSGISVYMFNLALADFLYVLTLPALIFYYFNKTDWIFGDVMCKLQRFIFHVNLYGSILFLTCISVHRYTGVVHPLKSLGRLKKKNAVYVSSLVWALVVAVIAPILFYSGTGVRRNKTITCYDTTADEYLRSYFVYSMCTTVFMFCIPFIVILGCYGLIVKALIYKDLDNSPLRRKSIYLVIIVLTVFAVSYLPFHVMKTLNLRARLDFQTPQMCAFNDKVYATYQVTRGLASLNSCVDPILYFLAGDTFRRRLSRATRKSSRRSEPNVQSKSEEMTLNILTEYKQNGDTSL

human e-NPP1 = biological target: T1, human e-NPP1 (Homo sapiens, UniProt P22413); assay: Hydrolysis of dinucleotides by human e-NPP1; assay type: in vitro ADME; details: over 20 min at 37 °C, pH 8.5
T1 sequence (P22413 1-925): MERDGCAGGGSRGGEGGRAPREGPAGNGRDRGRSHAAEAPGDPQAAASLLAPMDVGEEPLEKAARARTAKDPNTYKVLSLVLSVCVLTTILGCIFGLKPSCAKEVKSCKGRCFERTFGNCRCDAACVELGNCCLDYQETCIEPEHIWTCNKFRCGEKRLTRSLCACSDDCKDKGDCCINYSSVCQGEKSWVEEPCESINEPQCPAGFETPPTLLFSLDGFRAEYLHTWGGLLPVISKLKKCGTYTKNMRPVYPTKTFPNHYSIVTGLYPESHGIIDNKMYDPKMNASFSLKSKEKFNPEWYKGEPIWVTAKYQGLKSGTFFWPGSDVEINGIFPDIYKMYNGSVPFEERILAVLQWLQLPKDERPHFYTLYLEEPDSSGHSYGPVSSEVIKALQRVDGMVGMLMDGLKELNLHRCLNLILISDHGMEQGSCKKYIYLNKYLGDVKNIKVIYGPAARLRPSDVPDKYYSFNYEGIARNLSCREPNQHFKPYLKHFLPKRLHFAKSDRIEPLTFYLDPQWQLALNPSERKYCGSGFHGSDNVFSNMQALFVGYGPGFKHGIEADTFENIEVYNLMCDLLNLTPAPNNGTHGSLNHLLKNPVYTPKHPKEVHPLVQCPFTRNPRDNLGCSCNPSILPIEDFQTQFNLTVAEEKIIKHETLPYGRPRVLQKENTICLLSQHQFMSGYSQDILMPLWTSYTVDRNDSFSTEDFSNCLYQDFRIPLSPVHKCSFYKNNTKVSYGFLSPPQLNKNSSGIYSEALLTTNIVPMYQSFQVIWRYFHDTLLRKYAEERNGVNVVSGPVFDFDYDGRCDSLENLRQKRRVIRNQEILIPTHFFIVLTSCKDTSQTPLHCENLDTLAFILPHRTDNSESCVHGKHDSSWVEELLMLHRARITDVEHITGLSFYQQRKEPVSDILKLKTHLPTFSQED

Structure (SMILES): O=c1ccn([C@@H]2O[C@H](COP(=O)(O)OP(=O)(O)OP(=O)(O)O)[C@@H](O)[C@H]2O)c(=O)[nH]1 [UTP, uridine 5′-triphosphate]
EC50 (P2Y2R): 15 nM

Structure (SMILES): CSc1nc(N)c2ncn([C@@H]3O[C@H](COP(=O)(O)OP(=O)(O)O)[C@@H](O)[C@H]3O)c2n1 [Analogue 2-SMe-ADP]
EC50 (rP2Y1-GFP receptor): 100 nM

Structure (SMILES): [BH3-][P+](O)(OP(=O)(O)OC[C@H]1O[C@@H](n2ccc(=O)[nH]c2=O)[C@H](O)[C@@H]1O)OP(=O)(O)OP(=O)(O)OC[C@H]1O[C@@H](n2ccc(=O)[nH]c2=O)[C@H](O)[C@@H]1O (some centres unmarked) [Analogue 7A, P^2-Borano-P^1,P^4-di(5′-uridine)tetraphosphate]
EC50 (tP2Y1 receptor): > 100000 nM

Structure (SMILES): [BH3-][P+](O)(OP(=O)(O)OC[C@H]1O[C@@H](n2cnc3c(N)ncnc32)[C@H](O)[C@@H]1O)OP(=O)(O)OP(=O)(O)OC[C@H]1O[C@@H](n2ccc(=O)[nH]c2=O)[C@H](O)[C@@H]1O (some centres unmarked) [Analogue 8, P^3-Borano-P^1,P^4-5′-uridine-5′-adenosinetetraphosphate]
EC50 for [Ca2+]i elevation, P2Y1 (tP2Y1 receptor; listed as Ap4(β-B)U): inactive

Structure (SMILES): [BH3-][P+](O)(OP(=O)(O)OC[C@H]1O[C@@H](n2cnc3c(N)ncnc32)[C@H](O)[C@@H]1O)OP(=O)(O)OP(=O)(O)OC[C@H]1O[C@@H](n2ccc(=O)[nH]c2=O)[C@H](O)[C@@H]1O (some centres unmarked) [Analogue 8A, P^3-Borano-P^1,P^4-5′-uridine-5′-adenosinetetraphosphate]
EC50 (tP2Y1 receptor): > 100000 nM

percentage of the compound hydrolyzed by human e-NPP1 (human e-NPP1): completely resistant to hydrolysis
Structure (SMILES): BP(=O)(OC[C@H]1O[C@@H](n2ccc(=O)[nH]c2=O)[C@H](O)[C@@H]1O)OP(=O)(O)OP(=O)(O)OC[C@H]1O[C@@H](n2ccc(=O)[nH]c2=O)[C@H](O)[C@@H]1O (some centres unmarked) [Analogue 11A, P^1-Borano-P^1,P^3-5′-diuridinetriphosphate]

percentage of the compound hydrolyzed by human e-NPP1 (human e-NPP1): completely resistant to hydrolysis
Structure (SMILES): BP(=O)(OC[C@H]1O[C@@H](n2cnc3c(N)ncnc32)[C@H](O)[C@@H]1O)OP(=O)(O)OP(=O)(O)OC[C@H]1O[C@@H](n2cnc3c(N)ncnc32)[C@H](O)[C@@H]1O (some centres unmarked) [Analogue 10A, P^1-Borano-P^1,P^3-5′-diadenosinetriphosphate]

Structure (SMILES): BP(=O)(OC[C@H]1O[C@@H](n2ccc(=O)[nH]c2=O)[C@H](O)[C@@H]1O)OP(=O)(O)OP(=O)(O)OP(=O)(O)OC[C@H]1O[C@@H](n2ccc(=O)[nH]c2=O)[C@H](O)[C@@H]1O (some centres unmarked) [Analogue 13A, P^1-Borano-P^1,P^4-5′-diuridinetetraphosphate]
EC50 (tP2Y1 receptor): > 100000 nM
